Series [1] can be described thus: Copper release from a gel matrix (HEC gel release assay). The class given is physicochemical. The note with it: HEC gel with 250 ppm Cu, bicarbonate solution pH 7, over 24 hours.
Procedure: This assay consisted of exposing the copper-containing HEC—with specific surface area (7.1 cm^2)—to a bicarbonate buffered solution at pH 7.0±0.2, following copper concentration over time.
10 g of the gel was poured into a 50 ml falcon tube and let settle down overnight. 10 ml of a 50 mM NaHCO3 solution at pH 7±0.2 were carefully transferred on the surface of the gel. Samples were collected over 24 hours and copper concentration in the overhead solution was determined by ICP-OES (see section 2.4.1.).
The test system of a further series is P. aeruginosa. The series is described as follows: Minimum bactericidal concentration (liquid incubation, then agar plates). The class given is cell-based. Conditions: n = 1.
Series [2] has as its system Human dermal fibroblast cells (cell line CCD-25SK). Briefly: Cell proliferation of skin fibroblasts (IncuCyte confluence AUC). Format: cell-based. The note with it: CCD-25Sk skin fibroblasts, 48 hours. As for the experimental part:
CuCl2 and AgNO3 were also tested in parallel as positive controls. Percentage of cell confluence was determined experimentally using an IncuCyte Zoom and plotted overtime to determine the area under the curve (AUC) for each concentration tested. Cell proliferation was used as an indication for cell toxicity and was determined by normalising the AUC of cells exposed to the testing compounds against those of cells growing at normal rates (control).

Another series deals with B. subtilis BR151. The series is described as follows: Minimum bactericidal concentration (liquid incubation, then agar plates). Format: cell-based. Conditions: n = 1.
Series [3] can be described thus: Copper dispersibility in MOPS buffer pH 7.4. Format: physicochemical. The note with it: MOPS buffer pH 7.4±0.2, copper added up to 500 ppm. As for the experimental part:
Stock copper materials were diluted in 50 mM 3-(N-morpholino)propanesulfonic acid (MOPS) buffer at pH 7.4±0.2. Final copper concentrations varied between 10 and 500 ppm. Microparticulate copper was removed by centrifugation at 16000 g for 5 minutes. Total copper and supernatant (i.e. disperse fraction) were analysed by Inductively Coupled Plasma-Optical Emission Spectroscopy (ICP-OES) as described in section 2.4.1.

A further series concerns V. fischeri. Briefly: Minimum bactericidal concentration (liquid incubation, then agar plates). The class given is cell-based. Conditions: n = 1.
For the next series, the system named is E. coli MC1061. The description is as above. The note with it: n = 1. The class given is cell-based.
The test system of the next series is S. aureus RN4220. The series is described as above. The class given is cell-based. The note with it: n = 1.
In series [4] the test system is Escherichia coli NCTC11100. The series is described as follows: Bacterial growth inhibition assay (turbidimetric, OD 595 nm, HMM medium). Format: cell-based. Conditions: E. coli, no copper.
Procedure: Antimicrobial activity was assessed through determination of bacterial growth inhibition in the presence of copper compounds. A turbidimetric assay was used to follow bacterial concentration over time as this is proportional to optical density (OD at 595 nm) in liquid medium, allowing an easy screening of bacterial growth over time. Escherichia coli NCTC11100 and Staphylococcus aureus RN4220 were the tested microorganisms in this assay. Stock bacterial colonies were kept in cultivated in agar plates and on the day before the experiment, one colony was transferred into 10 ml of HMM liquid medium and grown overnight at 30° C. under constant shaking (80 rpm) in an incubator. […] Copper stock solutions (refer to section 2.1) were sequentially diluted in HMM to achieve typical concentrations between 0.8 and 100 ppm Cu in a volume of 0.1 ml. Next, 0.1 ml of bacterial culture was added and incubated with copper at 30° C. under constant agitation (80 rpm). Final copper concentrations in the assay ranged between 0.4 and 50 ppm, and OD was measured every hour for a typical period of 7-8 hours to follow bacterial growth. OD background, i.e. OD absorbance not caused by bacteria, was determined to remove readout interference from copper and broth. Growth inhibition was calculated as follows: […]

Regarding `O.O.[Cl][Cu][Cl]` [CuCl2, CuCl2.2H2O], in series [1], the “Cu released from HEC matrix” value is recorded as at most 10 ppm. In addition, the MBC in the series on P. aeruginosa (4 h incubation) is 100 ppm Cu; with P. aeruginosa (24 h incubation), 100 ppm Cu; with P. aeruginosa (48 h incubation) it was 100 ppm Cu; in the series on P. aeruginosa (72 h incubation) it was 100 ppm Cu; in the series on P. aeruginosa (96 h incubation), 100 ppm Cu; in the series with B. subtilis BR151 (4 h incubation), above 100 ppm Cu. Moreover, the MBC against B. subtilis BR151 (24 h incubation) is on record as above 100 ppm Cu; with B. subtilis BR151 (48 h incubation), above 100 ppm Cu; against B. subtilis BR151 (72 h incubation) it was above 100 ppm Cu; in the series with B. subtilis BR151 (96 h incubation), above 100 ppm Cu; against V. fischeri (4 h incubation), 100 ppm Cu; against V. fischeri (24 h incubation) it was 100 ppm Cu. Further, the MBC was above 100 ppm Cu against V. fischeri (48 h incubation); above 100 ppm Cu in the series on V. fischeri (72 h incubation); above 100 ppm Cu against V. fischeri (96 h incubation); 100 ppm Cu with E. coli MC1061 (4 h incubation); 50 ppm Cu against E. coli MC1061 (24 h incubation); 10 ppm Cu against E. coli MC1061 (48 h incubation). Moreover, the MBC in the series with E. coli MC1061 (72 h incubation) was found to be 50 ppm Cu; against E. coli MC1061 (96 h incubation), 50 ppm Cu; with S. aureus RN4220 (4 h incubation), 100 ppm Cu; in the series on S. aureus RN4220 (24 h incubation) it was 50 ppm Cu; with S. aureus RN4220 (48 h incubation), 50 ppm Cu; with S. aureus RN4220 (72 h incubation), 50 ppm Cu. The MBC in the series on S. aureus RN4220 (96 h incubation) turned out to be 50 ppm Cu. Moreover, the “concentration from which cell proliferation decreased” value in [2] was at least 50 µg/mL. Besides, in series [3], the “dispersible fraction (maximum)” value was “ca. 10 ppm of Cu”.
With `O.O.O=C([O-])CN(CCN(CC(=O)[O-])CC(=O)O)CC(=O)O.[Na+].[Na+]` [EDTA, disodium ethylenediaminetetraacetate (EDTA) di-hydrate], the “antibacterial effect of the complexing agent alone (in words)” value in series [4] is “had antibacterial effect”.
Regarding `O=[N+]([O-])[O-].[Ag+]` [AgNO3], in series [2], the “concentration from which cell proliferation decreased” value was at least 10 µg/mL.

The values above are taken from patent US20180147177A1, “Antibacterial Compositions Comprising Copper Oxo-Hydroxide Nanoparticles and Their Uses as Biocidal Agents” (Medical Research Council, priority 2015, published 2018).
